This note sets out measurements from patent publication US20050069544A1, “Pharmaceutical composition and a method of treatment” (priority 1998, published 2005).

For one experiment, the system named is PBMC from AIHA patients. Description: celELISA of cytokine production by PBMC from AIHA patients. The format is cell-based, human. The following applies: AIHA patient (AIHA26); FIG. 24A. The protocol:
Cultured T-cells are stimulated with each of the epitopes given in Table 1 and after 5 days the responding cells were transferred to flat-bottomed microtitre plates (96-well Nunc-Immuno Maxisorp) coated with […] per well of monoclonal anti-cytokine capture antibody diluted in 0.05M alkaline carbonate coating buffer pH 9.6. Unbound capture antibody was removed by two washes with HBSS and non-specific binding potential blocked by incubation with 200 μl per well of phosphate buffered saline, pH 7.4 (PBS containing 3% BSA). […]
After six washes with 0.5% Tween/PBS, 100 μl of 1:100,000 ExtrAvidin-alkaline phosphatase conjugate (Sigma) was then added to each of the wells and incubated at room temperature for 30 minutes. […] The absorbance at 405 nm was then measured using a Multiscan plate reader (Labsystems Basingstoke UK).
Cytokine secretion was measured by interpolation from a standard curve generated by incubating duplicate wells with doubling dilutions of recombinant human IFN-γ or IL-10 or TGF-β (Pharmingen). The standard curves were modelled by a smoothed cubic spline function applied to the absorbance reading and the cytokine concentrations after a quasilogarithmic transformation, where: quasiloge(z)=loge[z+{square root}[z^2+1]). […]

In experiment [1] the test system is CD3+ CD4+ T-helper cells of AIHA patients. Kind of experiment: Flow cytometry of CD3, CD4 and intracellular cytokines in PBMC from AIHA patients. The format is cell-based, human. The following applies: AIHA patient; FIGS. 24B to 24E. The protocol:
The secretion of cytokines identified in Example 1.3 by T-helper cells is confirmed by flow cytometery analysis. Simultaneous measurement of surface molecules CD3 and CD4 and intracellular cytokines IFN-γ or IL-10 was carried out using three colour flow cytometry analysis in PBMC, isolated from RhD-alloimmunised donors, cultured with either no antigen or RhD peptide for five days after stimulation. All analysis was carried out using Expo v2 analysis software (applied Cytometry Systems). The CD3+ T-cells were gated open and the numbers of IFN-γ+ and CD4+ cells were assessed. In all donors tested there was a significant increase in the proportion of CD4+ IFN-γ+CD3+ T-cells to at least one of the RhD peptides tested. In the representative example shown in FIGS. 12A to 12L it can be seen that the proportion of CD4+ IFN-γ+cells was 4.2% in unstimulated cultures (FIG. 12E). […] The IL-10 and CD4+ expression was also assessed on CD3+ gated population of T-cells. In PBMC cultures isolated from the alloimmune donor shown, there was an increase in the proportion of CD4+ IL-10+T-cells from 2.4% in unstimulated PBMC cultures (FIG. 12I) to 6.5% in culture stimulated with RhD peptide 13 (FIG. 12J) to 6.2% in cultures stimulated with RhD peptide 17 (FIG. 12K) and 5.9% with RhD peptide 28 (FIG. 12L).
The secretion of cytokines identified in Example 2.3 by T-cells is confirmed utilising the experiments mentioned in Example 1.4, which were repeated using PBMC isolated from patients with AIHA.

For “WMFWPSFNSALLRSP (Residue 217-231 RhD; listed as Homo sapiens) [compound 36]”, the “IL-10 production by PBMC” value in the experiment on PBMC from AIHA patients is recorded as “induces the production of IL-10”. In addition, the “CD3+ CD4+ T helper cells expressing intracellular IL-10” value in experiment [1] is recorded as “expansion of a CD3+ CD4+population of T helper cells”.
